In patent EP3124027A1, “TRIPHENYLPHOSPHONIUM SALTS FOR USE IN CANCER THREAPY” (Centrum Badan Molekularnych I Makromolekularnych Polskiej …, priority 2015, dated 2017):
pEC50, pIC50: −log10 of the molar value. Like-named read-outs stand apart in the source and are kept apart here.

Experiments:
[1] = system: K562 cells (chronic myelogenous leukemia); experiment: MTT cytotoxicity test on suspension K562 cells; assay type: cell-based, human; details: for fold decrease of IC50 after 48 h compared to IC50 after 24h: K562 cells; for cytotoxicity, times greater in relation to the salt Fh3P^+C5H11 I^-: K562 cells after 48 h
Method: (§1) Compound 1, where R = ethyl, X = I (formula 1a) and the compound 1 where R = n-octyl, and X = I (formula 1b, were tested for cytotoxic properties on two representatives of human tumor cells: adherent HeLa cells (cervical carcinoma) and suspension K562 cells (chronic myelogenous leukemia). The cytotoxicity of the test compounds was determined with the MTT test in which the yellow tetrazolium salt is reduced by dehydrogenase in the mitochondria of living cells into a purple formazan. 1.HeLa or K562 cells were seeded in 96-well plates in the amount of seven thousand cells/well in 200 µL of culture medium. Cells were incubated overnight in an incubator (37 °C, 5% CO2) 2. The tested compound was added to the cells to yield the following final concentrations in the cell culture: 1 mM, 10 µM, 100 nM, 1 nM. Cells treated with 1% DMSO served as the control with 100% viability. 3. After 24 h or 48 h incubation of HeLa or K562 cells with test compounds, 25 µL of MTT (5 mg / mL) was added to each well. MTT, a yellow tetrazolium salt is reduced to purple formazan by mitochondrial dehydrogenases of living cells, the quantity of which can be determined spectrophotometrically. Cells were incubated with MTT for two hours in an incubator (37 ° C, 5% CO2). Next, lysis buffer containing SDS and DMF was added (95 µL / well). Cells were lysed overnight at 37 ° C, 5% CO2. 4. The absorbance of each well was read on FLUOstar Omega reader at the wave length of 570 and 650 nm. The absorbance measured at 570 nm is proportional to the number of viable cells. The viability of the cells was calculated for each concentration of the test compound. The IC50 values were read from the dose - viability plots by interpolation to 50% cell survival. 5.The results indicating the strong toxicity of both, compound 1a and compound 1b to the adherent HeLa cells and suspension K562 cells are shown in Tables 1 and 2.
(§2) The compound of formula 1c was tested for cytotoxic properties on two human cell lines using the MTT assay (yellow tetrazolium salt transformed by dehydrogenase in the mitochondria of living cells into the purple formazan). The tests were performed on HeLa (cervical carcinoma) and K562 (chronic myelogenous leukemia) cells.
(§3) (Experimental protocol as in Example I).

[2] = system: HeLa cells (cervical carcinoma); experiment: MTT cytotoxicity test on adherent HeLa cells; assay type: cell-based, human; details: for pIC50: Homo sapiens, HeLa; for cytotoxicity, times greater in relation to the salt Fh3P^+C5H11 I^-: HeLa cells after 48 h
Method: as §1, §2, §3

[3] = system: cervical carcinoma HeLa cells and chronic myelogenous leukemia K562 cells; experiment: MTT cytotoxicity, summary ranges over HeLa and K562 cells; assay type: cell-based; details: Homo sapiens, read-out: IG50 (the source's name)
Method: as §1, with “After 24 h or 48 h incubation of HeLa or K562 cells with test compounds, 25 µL of MTT (5 mg / mL) was added to each well.” left out

HeLa cells = details: read-out: cytotoxicity EC50; cited from earlier work
K562 and HeLa cells = details: PL395749, cited from earlier work
[4] = system: cervical carcinoma cells (HeLa); details: after 24 h, PL395749; cited from earlier work
K562 cells = details: K562, 24 h; PL395749; cited from earlier work
[5] = Homo sapiens, K562, 24 h, read-out: IC50
[6] = Homo sapiens, K562, 48 h, read-out: IC50

Compound | pIC50 [1, 5] | pIC50 [1, 6] | fold decrease of IC50 after 48 h compared to IC50 after 24h [1] | cytotoxicity, times greater in relation to the salt Fh3P^+C5H11 I^- [1] [times] | pIC50 ([3]; after 4 h (so in the source)) | pIC50 ([3]; after 48 hrs) | cytotoxicity, times greater in relation to the salt Fh3P^+C5H11 I^- [2] | pIC50 ([2]; 24h, read-out: IC50) | pIC50 ([2]; 48h, read-out: IC50) | other results
BrCc1ccc(-c2ccc(C[P+](c3ccccc3)(c3ccccc3)c3ccccc3)cc2)cc1 [Compound 1c] | – | – | – | – | – | – | – | – | – | pIC50 ([1]; Homo sapiens, K562, 48 h, K562, 48 h (Table 2, compound 1c), read-out: IC50 48 h): 5.22; pIC50 ([1]; K562, 48 h (Table 2, compound 1c), read-out: IC50 48 h): 5.30; pIC50 ([2]; 48 h (Table 2, compound 1c), read-out: IC50 48 h): 4.52
CCCCCCCCCC[P+](c1ccccc1)(c1ccccc1)c1ccccc1.[I-] [Compound 1a, n-decyltriphenylphosphonium iodide] | 5.52 | 6.30 | six | 12 | 5.15 to 5.70 | 5.30 to 6.30 | 12-15 times | 5.15 | 5.30 | –
CCCCCCCCCCCCCC[P+](CCCCCC)(CCCCCC)CCCCCC.O=S(=O)([N-]S(=O)(=O)C(F)(F)F)C(F)(F)F [tri-n-hexyl(tetradecyl)phosphonium bis(trifluoromethylsulfonyl) imide] | – | – | – | – | – | – | – | – | – | pEC50 (HeLa cells): 4.10
CCCCC[P+](c1ccccc1)(c1ccccc1)c1ccccc1 [Compound C5] | – | – | – | – | – | – | – | – | – | pIC50 (K562 and HeLa cells; after 24 h): 4.05 to 4.30; pIC50 (K562 and HeLa cells; second value for C5, printed after 24 h): 4.22 to 5.22; pIC50 [4]: 4.05; pIC50 (K562 cells): 4.30
CCCCCCCCCCCCCCCC[P+](c1ccccc1)(c1ccccc1)c1ccccc1.[I-] [Compound 1b, triphenyl-n-hexadecylphosphonium iodide] | 5.70 | 6.30 | four | 12 | 5.15 to 5.70 | 5.30 to 6.30 | 12-15 times | 5.30 | 5.40 | –
